One data set has as its system MSSA. The experiment in a line: MBEC of geranic acid in solution (Hepes buffer). It counts as cell-based, Staphylococcus aureus. Particulars: 50 mM Hepes buffer. The text has this: Neutral species in DES may be uniquely important to potentiate otherwise bioactive IL. […] At this pH, most of the acid is expected to be found in the protonated state (pKa is ˜5-5.5 according to the literature). […] Many different DES can be envisioned with this same platform of 1:1 anion:cation as an EPS disruptor/delivery agent with a neutral acid (or even a completely neutral species such as an isoprenoid hydrocarbon) as a molecule designed to saturate both leaflets of a cellular membrane.

For data set [1] the following is noted: according to the literature; cited from earlier work.
Data set [2] concerns mammalian skin cell lines.

Procedure for MSSA biofilms: Biofilms of Methicillin-sensitive Staphylococcus aureus (MSSA) were established on the pegs of a biofilm inoculator (Innovotech) according to the manufacturer's instructions. Briefly, a bacterial colony of MSSA was inoculated from an agar streak plate into cation-adjusted Mueller-Hinton broth (5 mL) and grown to confluence overnight in a shaker incubator (37° C., 200 rpm). The confluent culture was then diluted into fresh media (1:100, v:v), and grown to an optical density (OD) of 0.4 (approximately three hours). At this time, the cultures were again diluted into fresh media (1:50, v:v) and 200 μL of the resultant dilution were placed into each well of an Innovotech 96 well biofilm inoculator plate. The inoculator was added to the wells of the culture plate and it was placed in a shaker incubator overnight (37° C., 150 rpm). The spent media was decanted each morning and refreshed with equal volumes of new media, and the inoculator was again placed in a shaker incubator overnight (37° C., 150 rpm). […]
A 10% (v:v) stock solution of each DES in CAMHB was serially diluted into fresh CAMHB in the wells of a 96 well plate. […] MSSA cells were allowed to grow overnight in the shaker incubator and viability was assessed via measurement of optical density at 600 nm using a plate reader (Synergy HT). […]

As to `CC(C)=CCC/C(C)=C/C(=O)O` [geranic acid], the MBEC in the data set with MSSA (pH=6.4, 0.1% Tween 20) is recorded as 2.5 % in water; in the data set on MSSA (pH=8.4, 0.1% Tween 20), greater than 10%. Also, the pKa in data set [1] is on record as 5-5.5.
As for “Choline Geranate Ionic Liquid [2; CAGE (1:1)]”, in the data set with MSSA biofilms (2-hour challenge, 72 hr MSSA biofilms, dilutions in CAMHB 0.313-10% (v:v)), the “MBEC (% by volume)” value is 5-10 % by volume. Also, in the data set with MSSA biofilms (in water), the “MBEC against MSSA” value is recorded as 5-10%.
As to choline geranate [CAGE], the “Toxicity to mammalian skin cell lines” value in data set [2] was “generally non-toxic to mammalian skin cell lines”.

The record behind these values is patent publication US11213497B2, “Antibiofilm formulations” (ARIZONA BOARD OF REGENTS ON BEHALF OF NORTHERN ARIZONA …, priority 2017, dated 2022).
